{"source": "ChEMBL document CHEMBL1139461", "about": "“Synthesis and characterization of the novel fluorescent prolyl oligopeptidase inhibitor 4-fluoresceinthiocarbamoyl-6-aminocaproyl-L-prolyl-2(S)-(hydroxyacetyl)pyrrolidine” (J Med Chem, 2005)", "biological_target": "Prolyl endopeptidase (Sus scrofa, UniProt P23687)", "sequence (P23687 whole entry)": "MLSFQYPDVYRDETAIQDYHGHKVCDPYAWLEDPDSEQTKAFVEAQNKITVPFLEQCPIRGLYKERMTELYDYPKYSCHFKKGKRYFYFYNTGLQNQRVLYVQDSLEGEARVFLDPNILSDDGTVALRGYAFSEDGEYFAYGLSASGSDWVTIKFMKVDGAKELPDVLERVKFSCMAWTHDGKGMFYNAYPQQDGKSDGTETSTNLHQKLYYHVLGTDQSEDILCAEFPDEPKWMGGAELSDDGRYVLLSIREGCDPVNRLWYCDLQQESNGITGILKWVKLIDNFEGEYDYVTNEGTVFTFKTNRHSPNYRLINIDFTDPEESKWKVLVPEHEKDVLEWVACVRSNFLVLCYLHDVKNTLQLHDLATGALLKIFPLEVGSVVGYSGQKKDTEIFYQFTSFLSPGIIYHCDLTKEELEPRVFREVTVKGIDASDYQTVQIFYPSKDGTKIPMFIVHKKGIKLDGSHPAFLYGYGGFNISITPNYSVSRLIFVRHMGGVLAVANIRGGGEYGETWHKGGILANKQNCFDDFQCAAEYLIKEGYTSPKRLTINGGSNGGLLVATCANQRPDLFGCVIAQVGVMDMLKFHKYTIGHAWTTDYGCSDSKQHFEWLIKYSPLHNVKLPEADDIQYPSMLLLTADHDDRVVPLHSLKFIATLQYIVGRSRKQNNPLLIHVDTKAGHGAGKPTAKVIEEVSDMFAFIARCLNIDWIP", "experiment": "Inhibition of pig brain POP"}
{"compound": "O=C1OC2(c3ccc(O)cc3Oc3cc(O)ccc32)c2ccc(NC(=S)NCC(=O)N3CCC[C@H]3C(=O)N3CCC[C@H]3C(=O)CO)cc21", "values": [{"measurement": "IC50", "result": 0.18, "unit": "µM"}]}
{"compound": "O=C1OC2(c3ccc(O)cc3Oc3cc(O)ccc32)c2ccc(NC(=S)NCCCCCC(=O)N3CCC[C@H]3C(=O)N3CCC[C@H]3C(=O)CO)cc21", "values": [{"measurement": "IC50", "result": 0.00083, "unit": "µM"}]}
